Reference: patent US20080305175A1, “Micro-Container” (AGENCY FOR SCIENCE, TECHNOLOGY AND RESEARCH, priority 2006, published 2008)
Counter-ions that a name gives are not always drawn.

Columns and labels:
[1] = In vivo release test, DOX concentration in blood after subcutaneous administration; design: species or system Male Sprague Dawley rats; details: rat, 1 mg DOX in normal saline subcutaneously, ~20 mL blood in a rat
Protocol: Male Sprague Dawley rats (8 weeks, average weight 250 g) were stabilized for 1 week with free access to food and water. Microcontainers loaded with DOX were subcutaneously administered into the rats at a level of 3.7 mg/Kg (10 mg microspheres containing 1 mg DOX were freshly dispersed in 0.5 mL of normal saline solution for each rat). […] The blood samples were separated by centrifugation at 2000 g at 4° C. for 10 min and the obtained plasma samples were then stored at −20° C. prior to analysis. Just before the DOX extraction, the plasma samples were thawed followed by adding 3 ml of 70% ethanol and 30% 0.45 M HCl aqueous solution by volume. The obtained suspensions were mixed for 30 s to form gels. These gels were first stored at 4° C. for 24 hours in dark, and then centrifuged at 10,000 g for 15 min. The supernatants were transferred into glass cuvettes and allowed to warm to room temperature for the determination of DOX concentration by a fluorescence spectrophotometer.

[2] = cited from earlier work

SMILES	DOX concentration level that can be reached in blood [1]	solubility in water ([2]; water)	stability versus pH ([2]; pH of more than 6.5)
COc1cccc2c1C(=O)c1c(O)c3c(c(O)c1C2=O)C[C@@](O)(C(=O)CO)C[C@@H]3O[C@H]1C[C@H](N)[C@H](O)[C@H](C)O1 [DOX, Doxorubicin hydrochloride]	50 µg/mL	10000 µg/mL	–
COc1cccc2c1C(=O)c1c(O)c3c(c(O)c1C2=O)C[C@@](O)(C(=O)CO)C[C@@H]3O[C@H]1C[C@H](N)[C@H](O)[C@H](C)O1 [Doxorubicin, doxorubicin]	–	–	unstable
